Assay results from ChEMBL document CHEMBL5154740, “Novel Aurora A and Protein Kinase C (α, β1, β2, and θ) Multitarget Inhibitors: Impact of Selenium Atoms on the Potency and Selectivity” (J Med Chem, 2022).

Legend:
[1] = biological target: T1, Protein kinase C epsilon type (Homo sapiens) (UniProt Q02156); assay: Inhibition of PKCepsilon (unknown origin) at 50 nM by Z'LYTE screening method relative to control
T1 sequence (whole entry): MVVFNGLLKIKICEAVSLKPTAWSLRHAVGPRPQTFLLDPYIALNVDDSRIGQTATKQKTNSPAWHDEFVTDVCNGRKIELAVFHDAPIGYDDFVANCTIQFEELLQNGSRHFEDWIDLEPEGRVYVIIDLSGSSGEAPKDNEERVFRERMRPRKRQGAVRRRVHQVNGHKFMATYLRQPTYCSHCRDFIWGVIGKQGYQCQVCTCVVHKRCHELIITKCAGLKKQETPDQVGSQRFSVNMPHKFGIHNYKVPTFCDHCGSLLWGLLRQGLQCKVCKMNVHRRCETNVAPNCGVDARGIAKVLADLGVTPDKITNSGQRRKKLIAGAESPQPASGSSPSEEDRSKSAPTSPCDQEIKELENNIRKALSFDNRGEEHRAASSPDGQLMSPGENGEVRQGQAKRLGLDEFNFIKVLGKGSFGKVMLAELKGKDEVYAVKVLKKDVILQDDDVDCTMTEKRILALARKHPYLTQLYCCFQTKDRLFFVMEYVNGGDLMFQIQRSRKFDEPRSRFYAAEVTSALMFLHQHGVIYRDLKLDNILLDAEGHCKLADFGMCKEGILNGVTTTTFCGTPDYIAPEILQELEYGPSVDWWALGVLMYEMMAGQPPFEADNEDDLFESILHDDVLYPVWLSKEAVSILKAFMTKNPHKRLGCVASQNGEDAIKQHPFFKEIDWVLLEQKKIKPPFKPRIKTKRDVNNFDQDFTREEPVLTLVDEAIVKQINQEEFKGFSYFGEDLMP

[2] = biological target: CDK1/Cyclin A (Homo sapiens) (UniProt P06493+P20248); assay: Inhibition of CDK1/CyclinA (unknown origin) at 50 nM by Z'LYTE screening method relative to control; format: protein-complex assay
[3] = biological target: Aurora kinase B (Homo sapiens) (UniProt Q96GD4); assay: Inhibition of AURB (unknown origin) at 50 nM by Z'LYTE screening method relative to control
[4] = biological target: Protein kinase C theta type (Homo sapiens, UniProt Q04759); assay: Inhibition of PKCtheta (unknown origin) at 50 nM by Z'LYTE screening method relative to control
[5] = biological target: T2, Eukaryotic elongation factor 2 kinase (Homo sapiens) (UniProt O00418); assay: Inhibition of EEF2K (unknown origin) at 50 nM by Z'LYTE screening method relative to control
T2 sequence (whole entry): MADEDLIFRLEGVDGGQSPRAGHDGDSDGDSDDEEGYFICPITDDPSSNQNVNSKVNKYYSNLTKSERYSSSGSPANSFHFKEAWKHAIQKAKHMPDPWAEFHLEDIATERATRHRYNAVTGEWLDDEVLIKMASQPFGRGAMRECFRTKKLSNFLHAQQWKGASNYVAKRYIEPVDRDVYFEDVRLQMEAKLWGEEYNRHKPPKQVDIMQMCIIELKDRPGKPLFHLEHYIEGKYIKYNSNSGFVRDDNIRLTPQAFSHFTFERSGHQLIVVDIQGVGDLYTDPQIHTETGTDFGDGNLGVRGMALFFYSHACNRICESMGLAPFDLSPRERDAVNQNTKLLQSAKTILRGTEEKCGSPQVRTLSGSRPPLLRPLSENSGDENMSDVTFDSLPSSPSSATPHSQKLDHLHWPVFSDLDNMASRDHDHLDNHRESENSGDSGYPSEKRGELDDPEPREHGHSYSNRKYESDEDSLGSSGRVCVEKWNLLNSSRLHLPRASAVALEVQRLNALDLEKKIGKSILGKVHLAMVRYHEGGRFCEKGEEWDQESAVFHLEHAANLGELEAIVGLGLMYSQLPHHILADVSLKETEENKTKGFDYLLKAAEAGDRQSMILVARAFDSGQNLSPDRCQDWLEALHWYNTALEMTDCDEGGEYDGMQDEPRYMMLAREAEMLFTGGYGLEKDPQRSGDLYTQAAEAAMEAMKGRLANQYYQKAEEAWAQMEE

[6] = biological target: Receptor tyrosine-protein kinase erbB-2 (Homo sapiens) (UniProt P04626); assay: Inhibition of ERBB2 (unknown origin) at 50 nM by Z'LYTE screening method relative to control
[7] = biological target: Hepatocyte growth factor receptor (Homo sapiens) (UniProt P08581); assay: Inhibition of cMet (unknown origin) at 50 nM by Z'LYTE screening method relative to control
[8] = biological target: T3, Aurora kinase A (Homo sapiens) (UniProt O14965); assay: Inhibition of AURA (unknown origin) at 50 nM by Z'LYTE screening method relative to control
T3 sequence (whole entry): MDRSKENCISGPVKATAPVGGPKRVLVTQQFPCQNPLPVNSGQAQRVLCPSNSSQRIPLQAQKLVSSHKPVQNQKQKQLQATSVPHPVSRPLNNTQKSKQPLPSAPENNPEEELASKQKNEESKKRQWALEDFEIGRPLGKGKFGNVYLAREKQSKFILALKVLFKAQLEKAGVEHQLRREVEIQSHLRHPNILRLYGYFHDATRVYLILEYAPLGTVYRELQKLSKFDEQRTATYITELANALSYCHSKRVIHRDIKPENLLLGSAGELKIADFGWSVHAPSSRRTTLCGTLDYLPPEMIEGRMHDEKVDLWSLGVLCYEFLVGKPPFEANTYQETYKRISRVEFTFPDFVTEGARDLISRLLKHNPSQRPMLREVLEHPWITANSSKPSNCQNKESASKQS

[9] = biological target: PI3-kinase p110-alpha/p85-alpha (Homo sapiens) (UniProt P27986+P42336); assay: Inhibition of p110alpha/p85alpha (unknown origin) at 50 nM by Z'LYTE screening method relative to control; format: protein-complex assay
[10] = biological target: T4, Aurora kinase C (Homo sapiens) (UniProt Q9UQB9); assay: Inhibition of AURC (unknown origin) at 50 nM by Z'LYTE screening method relative to control
T4 sequence (whole entry): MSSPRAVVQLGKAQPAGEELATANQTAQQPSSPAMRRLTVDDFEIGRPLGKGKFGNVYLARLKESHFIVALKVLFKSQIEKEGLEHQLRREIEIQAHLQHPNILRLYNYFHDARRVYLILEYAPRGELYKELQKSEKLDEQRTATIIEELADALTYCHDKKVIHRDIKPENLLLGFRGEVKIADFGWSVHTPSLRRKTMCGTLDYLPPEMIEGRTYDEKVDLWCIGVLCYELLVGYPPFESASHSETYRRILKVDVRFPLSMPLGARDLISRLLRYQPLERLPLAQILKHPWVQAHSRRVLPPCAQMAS

[11] = biological target: Tyrosine-protein kinase Yes (Homo sapiens) (UniProt P07947); assay: Inhibition of YES1 (unknown origin) at 50 nM by Z'LYTE screening method relative to control
[12] = biological target: Protein kinase C eta type (Homo sapiens, UniProt P24723); assay: Inhibition of PKCeta (unknown origin) at 50 nM by Z'LYTE screening method relative to control
Sequence of Protein kinase C eta type (P24723 whole entry): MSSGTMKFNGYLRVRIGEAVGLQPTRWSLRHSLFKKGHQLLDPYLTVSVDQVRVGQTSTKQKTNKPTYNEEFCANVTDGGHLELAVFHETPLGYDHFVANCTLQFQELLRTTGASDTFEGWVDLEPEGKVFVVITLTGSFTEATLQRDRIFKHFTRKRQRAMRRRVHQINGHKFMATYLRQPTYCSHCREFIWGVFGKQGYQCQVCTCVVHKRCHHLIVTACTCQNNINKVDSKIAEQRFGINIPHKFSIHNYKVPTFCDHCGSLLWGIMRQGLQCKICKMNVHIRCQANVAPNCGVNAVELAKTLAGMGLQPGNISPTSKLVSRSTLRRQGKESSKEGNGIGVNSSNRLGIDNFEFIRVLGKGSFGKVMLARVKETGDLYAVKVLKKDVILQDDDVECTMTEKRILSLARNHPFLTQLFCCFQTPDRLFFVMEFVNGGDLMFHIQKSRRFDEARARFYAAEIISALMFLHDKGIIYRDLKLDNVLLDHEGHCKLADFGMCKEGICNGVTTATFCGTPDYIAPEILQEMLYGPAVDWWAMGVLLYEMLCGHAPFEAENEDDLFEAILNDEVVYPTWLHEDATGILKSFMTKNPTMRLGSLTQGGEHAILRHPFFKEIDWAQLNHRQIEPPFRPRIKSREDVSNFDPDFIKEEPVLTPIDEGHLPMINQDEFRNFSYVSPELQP

Sequence of CDK1/Cyclin A (Homo sapiens) (P06493 whole entry, looked up): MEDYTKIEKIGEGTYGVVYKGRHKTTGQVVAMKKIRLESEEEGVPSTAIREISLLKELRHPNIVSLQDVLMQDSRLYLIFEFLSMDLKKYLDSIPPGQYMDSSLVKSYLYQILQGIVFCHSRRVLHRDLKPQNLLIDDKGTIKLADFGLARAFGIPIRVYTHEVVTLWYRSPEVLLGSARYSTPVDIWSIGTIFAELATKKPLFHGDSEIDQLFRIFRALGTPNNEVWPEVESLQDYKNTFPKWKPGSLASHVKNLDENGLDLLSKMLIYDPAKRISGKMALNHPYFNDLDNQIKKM
Sequence of CDK1/Cyclin A (Homo sapiens) (P20248 whole entry, looked up): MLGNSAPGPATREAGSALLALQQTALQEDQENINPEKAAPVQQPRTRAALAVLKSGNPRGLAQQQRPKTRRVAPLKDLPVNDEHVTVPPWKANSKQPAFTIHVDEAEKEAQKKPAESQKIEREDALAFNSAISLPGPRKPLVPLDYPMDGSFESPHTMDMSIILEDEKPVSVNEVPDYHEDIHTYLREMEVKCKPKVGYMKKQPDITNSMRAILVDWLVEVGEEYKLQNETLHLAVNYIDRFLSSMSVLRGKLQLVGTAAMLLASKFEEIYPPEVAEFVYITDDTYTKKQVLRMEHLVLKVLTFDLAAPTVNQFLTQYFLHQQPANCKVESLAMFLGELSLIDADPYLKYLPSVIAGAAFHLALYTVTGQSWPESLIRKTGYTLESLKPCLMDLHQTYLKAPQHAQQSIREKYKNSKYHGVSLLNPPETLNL
Sequence of Protein kinase C theta type (Q04759 whole entry, looked up): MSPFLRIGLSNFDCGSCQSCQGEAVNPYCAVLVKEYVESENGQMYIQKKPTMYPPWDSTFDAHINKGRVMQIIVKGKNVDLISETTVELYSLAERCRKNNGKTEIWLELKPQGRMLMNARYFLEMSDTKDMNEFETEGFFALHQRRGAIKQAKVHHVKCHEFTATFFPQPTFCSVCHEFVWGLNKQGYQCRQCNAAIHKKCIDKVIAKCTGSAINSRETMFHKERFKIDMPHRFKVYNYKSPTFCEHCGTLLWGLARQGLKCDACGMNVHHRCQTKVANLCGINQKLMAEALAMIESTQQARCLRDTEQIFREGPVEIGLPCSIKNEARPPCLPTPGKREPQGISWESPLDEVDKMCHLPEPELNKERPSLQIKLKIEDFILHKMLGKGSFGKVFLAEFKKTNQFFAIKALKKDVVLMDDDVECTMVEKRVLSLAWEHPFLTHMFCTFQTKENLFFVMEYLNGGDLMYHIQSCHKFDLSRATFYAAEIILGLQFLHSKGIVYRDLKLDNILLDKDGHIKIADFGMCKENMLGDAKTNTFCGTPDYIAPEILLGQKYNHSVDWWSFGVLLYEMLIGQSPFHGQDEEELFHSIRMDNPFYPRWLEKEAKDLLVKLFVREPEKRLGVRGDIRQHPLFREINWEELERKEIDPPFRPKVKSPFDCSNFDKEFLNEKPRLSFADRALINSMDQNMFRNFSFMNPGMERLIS
Sequence of Receptor tyrosine-protein kinase erbB-2 (Homo sapiens) (P04626 whole entry): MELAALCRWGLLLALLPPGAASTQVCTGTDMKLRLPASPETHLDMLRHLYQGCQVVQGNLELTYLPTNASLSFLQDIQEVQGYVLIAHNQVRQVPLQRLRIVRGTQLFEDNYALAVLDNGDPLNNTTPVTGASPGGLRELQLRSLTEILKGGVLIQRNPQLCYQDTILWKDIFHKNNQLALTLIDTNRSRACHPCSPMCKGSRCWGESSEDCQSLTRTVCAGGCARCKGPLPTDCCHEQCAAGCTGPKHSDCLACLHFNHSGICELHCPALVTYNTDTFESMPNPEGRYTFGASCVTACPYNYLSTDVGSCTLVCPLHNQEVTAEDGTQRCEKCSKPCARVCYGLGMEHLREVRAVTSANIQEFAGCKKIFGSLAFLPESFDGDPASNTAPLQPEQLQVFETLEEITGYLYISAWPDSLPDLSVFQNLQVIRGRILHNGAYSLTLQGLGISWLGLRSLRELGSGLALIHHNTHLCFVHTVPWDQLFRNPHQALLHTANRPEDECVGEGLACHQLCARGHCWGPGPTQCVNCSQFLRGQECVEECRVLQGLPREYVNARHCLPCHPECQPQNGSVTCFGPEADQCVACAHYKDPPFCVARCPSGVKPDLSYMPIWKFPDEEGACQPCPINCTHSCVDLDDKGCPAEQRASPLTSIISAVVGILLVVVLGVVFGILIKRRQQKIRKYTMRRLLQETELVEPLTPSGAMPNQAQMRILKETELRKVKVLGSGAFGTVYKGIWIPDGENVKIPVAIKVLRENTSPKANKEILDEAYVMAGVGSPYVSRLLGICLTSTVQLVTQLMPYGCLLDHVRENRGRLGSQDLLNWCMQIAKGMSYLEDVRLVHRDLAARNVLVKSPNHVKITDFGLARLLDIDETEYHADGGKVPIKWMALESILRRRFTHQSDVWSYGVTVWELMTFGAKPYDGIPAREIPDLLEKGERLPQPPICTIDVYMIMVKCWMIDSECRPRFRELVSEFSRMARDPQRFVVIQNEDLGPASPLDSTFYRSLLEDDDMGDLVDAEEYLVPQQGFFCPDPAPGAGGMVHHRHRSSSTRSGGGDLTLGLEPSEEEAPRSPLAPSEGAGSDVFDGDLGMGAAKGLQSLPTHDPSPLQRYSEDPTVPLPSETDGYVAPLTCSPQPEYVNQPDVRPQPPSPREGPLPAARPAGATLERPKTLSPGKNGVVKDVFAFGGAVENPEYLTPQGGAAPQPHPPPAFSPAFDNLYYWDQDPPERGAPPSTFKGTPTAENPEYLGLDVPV
Sequence of Hepatocyte growth factor receptor (Homo sapiens) (P08581 whole entry): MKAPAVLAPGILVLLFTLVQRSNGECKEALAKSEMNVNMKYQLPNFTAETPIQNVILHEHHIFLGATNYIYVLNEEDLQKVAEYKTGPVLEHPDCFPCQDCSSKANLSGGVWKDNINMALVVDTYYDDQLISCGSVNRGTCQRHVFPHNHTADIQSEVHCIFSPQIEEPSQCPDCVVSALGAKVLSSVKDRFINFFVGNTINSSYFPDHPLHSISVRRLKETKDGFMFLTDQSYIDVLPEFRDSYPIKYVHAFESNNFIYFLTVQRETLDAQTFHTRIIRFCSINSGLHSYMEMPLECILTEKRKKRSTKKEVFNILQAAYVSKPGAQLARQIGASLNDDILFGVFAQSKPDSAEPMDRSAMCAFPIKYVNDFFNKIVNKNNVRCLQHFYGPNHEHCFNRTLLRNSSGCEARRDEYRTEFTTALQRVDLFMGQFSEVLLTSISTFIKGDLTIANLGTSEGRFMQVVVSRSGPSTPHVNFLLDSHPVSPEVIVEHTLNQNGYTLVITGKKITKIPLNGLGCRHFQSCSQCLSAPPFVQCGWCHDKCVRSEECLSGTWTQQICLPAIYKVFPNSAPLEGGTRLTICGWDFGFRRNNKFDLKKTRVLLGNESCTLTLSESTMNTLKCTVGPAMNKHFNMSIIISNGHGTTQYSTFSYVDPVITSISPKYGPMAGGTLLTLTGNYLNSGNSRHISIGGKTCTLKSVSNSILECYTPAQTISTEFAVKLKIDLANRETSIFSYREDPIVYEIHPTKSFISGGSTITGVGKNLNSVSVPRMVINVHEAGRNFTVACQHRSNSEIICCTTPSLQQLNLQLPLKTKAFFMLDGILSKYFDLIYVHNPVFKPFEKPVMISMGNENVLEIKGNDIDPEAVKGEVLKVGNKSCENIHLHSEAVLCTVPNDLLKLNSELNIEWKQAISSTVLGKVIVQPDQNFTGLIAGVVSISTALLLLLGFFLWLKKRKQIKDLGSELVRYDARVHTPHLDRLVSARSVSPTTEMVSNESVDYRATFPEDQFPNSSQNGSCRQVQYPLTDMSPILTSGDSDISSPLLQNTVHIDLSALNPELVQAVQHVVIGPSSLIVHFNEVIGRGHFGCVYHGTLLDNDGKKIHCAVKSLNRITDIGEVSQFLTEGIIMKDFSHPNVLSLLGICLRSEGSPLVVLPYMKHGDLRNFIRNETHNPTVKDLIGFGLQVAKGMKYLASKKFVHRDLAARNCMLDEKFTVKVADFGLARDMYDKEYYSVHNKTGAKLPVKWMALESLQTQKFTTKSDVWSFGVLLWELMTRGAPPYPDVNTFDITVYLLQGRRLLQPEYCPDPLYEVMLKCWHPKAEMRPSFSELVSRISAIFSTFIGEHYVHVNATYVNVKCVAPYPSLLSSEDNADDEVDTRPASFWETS

SMILES	inhibition [1]	inhibition [2]	inhibition [3]	inhibition [4]	inhibition [5]	inhibition [6]	inhibition [7]	inhibition [8]	inhibition [9]	inhibition [10]	inhibition [11]	inhibition [12]
O=C1c2ccccc2CN1c1nc(NC2CCCC2)c2nc[nH]c2n1	0%	0%	1%	7%	2%	0%	0%	1%	0%	1%	1%	4%
O=c1c2ccccc2[se]n1-c1nc(N[C@H]2CC[Se]C2)c2nc[nH]c2n1	5%	0%	0%	98%	2%	0%	0%	87%	0%	0%	10%	6%
O=c1c2ccccc2[se]n1-c1nc(N[C@H]2CCOC2)c2nc[nH]c2n1	0%	1%	0%	85%	2%	0%	0%	71%	0%	1%	6%	3%
O=C1c2ccccc2CN1c1nc(N[C@H]2CC[Se]C2)c2nc[nH]c2n1	2%	1%	9%	14%	2%	1%	0%	9%	0%	13%	12%	3%
C[C@@H]1[C@H]2C[C@@H](C[C@H]1Nc1nc(-n3[se]c4ccccc4c3=O)nc3[nH]cnc13)C2(C)C	2%	2%	6%	16%	2%	0%	1%	3%	0%	11%	7%	1%
O=c1c2ccccc2[se]n1-c1nc(NC2CCCCC2)c2nc[nH]c2n1	6%	3%	7%	62%	1%	0%	0%	84%	0%	13%	38%	0%
O=c1c2ccccc2[se]n1-c1nc(N[C@@H]2C[C@H]3CC[C@@H]2C3)c2nc[nH]c2n1	2%	1%	4%	15%	2%	0%	1%	4%	0%	9%	9%	1%
CCCNc1nc(-n2[se]c3ccccc3c2=O)nc2[nH]cnc12	6%	2%	2%	25%	0%	0%	1%	4%	0%	6%	3%	0%
CCN(CC)CCCC(C)Nc1nc(N2Cc3ccccc3C2=O)nc2[nH]cnc12 (centres undefined)	4%	1%	5%	12%	1%	0%	2%	3%	0%	10%	9%	2%
CCN(CC)CCCC(C)Nc1nc(-n2[se]c3ccccc3c2=O)nc2[nH]cnc12 (centres undefined)	8%	3%	6%	83%	0%	1%	14%	9%	0%	7%	15%	11%
O=c1c2ccccc2[se]n1-c1nc(Nc2ccccc2)c2nc[nH]c2n1	0%	2%	1%	12%	1%	0%	0%	6%	0%	6%	8%	0%
O=C1c2ccccc2CN1c1nc(NC2CCCCC2)c2nc[nH]c2n1	4%	2%	4%	0%	1%	0%	0%	4%	0%	9%	5%	0%
